Values quoted from earlier work, collected in publication PMC10026531 (Clinical Pharmacology in Drug Development, 2022).

Details: in vivo, po

O=c1ccc2ccc(OCCCCN3CCN(c4cccc(Cl)c4Cl)CC3)cc2[nH]1 [dehydro‐aripiprazole]
share of the parent drug exposure in plasma: 40%
